Test results from the supplement of paper PMC4862054.

What was measured:
Settings in all cases: incubation time: 72 h
BT-549 [1] = assay: normalised response (% of control), CellTox Green; higher = less cell death (100 = DMSO, 0 = benzethonium chloride kill control)
Summary of the method: (§1)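 Two readouts were taken after 72 h: CellTox Green fluorescence (485/520 nm) first, then CellTiter-Glo luminescence after 10 min at room temperature. Breast cancer cell lines had been seeded as 20 µl suspension into 384-well plates holding compound at 5 concentrations in 10-fold steps across a compound-specific 10,000-fold range. Each value is a normalised signal at a single concentration, with plates scaled to 0.1 % DMSO (100) and a positive kill control (0).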

CAL-120 [2] = assay: as above
Summary of the method: as §1

CAL-148 [3] = assay: as above
Summary of the method: as §1

CAL-85-1 [4] = assay: as above
Summary of the method: as §1

DU-4475 = assay: as above
Summary of the method: as §1

HCC1143 [5] = assay: as above
Summary of the method: as §1

HCC1599 [6] = assay: as above
Summary of the method: as §1

HCC1937 [7] = assay: as above
Summary of the method: as §1

HDQ-P1 [8] = assay: as above
Summary of the method: as §1

Hs578T [9] = assay: as above
Summary of the method: as §1

MCF-10A [10] = assay: as above
Summary of the method: as §1

MDA-MB-231 [11] = assay: as above
Summary of the method: as §1

MDA-MB-436 [12] = assay: as above
Summary of the method: as §1

MDA-MB-453 [13] = assay: as above
Summary of the method: as §1

BT-474 = assay: normalised response (% of control), CellTiter-Glo; higher = more viable cells (100 = DMSO, 0 = benzethonium chloride kill control)
Summary of the method: as §1

BT-549 [14] = assay: as above
Summary of the method: as §1

CAL-120 [15] = assay: as above
Summary of the method: as §1

CAL-148 [16] = assay: as above
Summary of the method: as §1

CAL-51 = assay: as above
Summary of the method: as §1

CAL-85-1 [17] = assay: as above
Summary of the method: as §1

HCC1143 [18] = assay: as above
Summary of the method: as §1

HCC1599 [19] = assay: as above
Summary of the method: as §1

HCC1937 [20] = assay: as above
Summary of the method: as §1

HDQ-P1 [21] = assay: as above
Summary of the method: as §1

Hs578T [22] = assay: as above
Summary of the method: as §1

MCF-10A [23] = assay: as above
Summary of the method: as §1

MDA-MB-231 [24] = assay: as above
Summary of the method: as §1

MDA-MB-436 [25] = assay: as above
Summary of the method: as §1

MDA-MB-453 [26] = assay: as above
Summary of the method: as §1

MDA-MB-468 = assay: as above
Summary of the method: as §1

MFM-223 = assay: as above
Summary of the method: as §1

SK-BR-3 = assay: as above
Summary of the method: as §1

SMILES | normalised response (BT-549 [1]) | normalised response (CAL-120 [2]) | normalised response (CAL-148 [3]) | normalised response (CAL-85-1 [4]) | normalised response (DU-4475) | normalised response (HCC1143 [5]) | normalised response (HCC1599 [6]) | normalised response (HCC1937 [7]) | normalised response (HDQ-P1 [8]) | normalised response (Hs578T [9]) | normalised response (MCF-10A [10]) | normalised response (MDA-MB-231 [11]) | normalised response (MDA-MB-436 [12]) | normalised response (MDA-MB-453 [13]) | normalised response (BT-474) | normalised response (BT-549 [14]) | normalised response (CAL-120 [15]) | normalised response (CAL-148 [16]) | normalised response (CAL-51) | normalised response (CAL-85-1 [17]) | normalised response (HCC1143 [18]) | normalised response (HCC1599 [19]) | normalised response (HCC1937 [20]) | normalised response (HDQ-P1 [21]) | normalised response (Hs578T [22]) | normalised response (MCF-10A [23]) | normalised response (MDA-MB-231 [24]) | normalised response (MDA-MB-436 [25]) | normalised response (MDA-MB-453 [26]) | normalised response (MDA-MB-468) | normalised response (MFM-223) | normalised response (SK-BR-3)
CC(C)C[C@H](NC(=O)[C@H](CCc1ccccc1)NC(=O)CN1CCOCC1)C(=O)N[C@@H](Cc1ccccc1)C(=O)N[C@@H](CC(C)C)C(=O)[C@@]1(C)CO1 [Carfilzomib] (1000 nM) | 62.5% | -0.18% | 12.2% | -74.2% | 87.3% | 72.1% | 99.5% | 32.8% | -14.6% | -63.5% | -56% | -0.32% | 38.2% | 91.3% |  |  |  |  |  |  |  |  |  |  |  |  |  |  |  |  |  | 
NC(=O)c1cccc2cn(-c3ccc([C@@H]4CCCNC4)cc3)nc12 [MK-4827] (1000 nM) | 134% | 98.5% | 80.5% | 95.6% | 97.8% | 81.1% | 99.2% | 104% |  | 113% | 111% | 120% | 86.7% | 106% | 109% | 97.4% | 101% | 97.6% | 95.2% | 105% | 104% | 107% | 105% | 102% | 102% | 106% | 109% | 79.3% | 140% | 101% | 106% | 98.8%
Nc1nc(Cl)nc2c1ncn2[C@@H]1O[C@H](CO)[C@@H](O)[C@@H]1F [Clofarabine] (10000 nM) | 87.3% | 105% | 65.1% | 60.5% | 89.1% | 106% | 93.9% | 75.6% | 112% | 142% | 110% | 90.7% | 65.6% | 95.2% |  |  |  |  |  |  |  |  |  |  |  |  |  |  |  |  |  | 
CO[C@H]1C[C@@H]2CC[C@@H](C)[C@@](O)(O2)C(=O)C(=O)N2CCCC[C@H]2C(=O)O[C@H]([C@H](C)C[C@@H]2CC[C@@H](O)[C@H](OC)C2)CC(=O)[C@H](C)/C=C(\C)[C@@H](O)[C@@H](OC)C(=O)[C@H](C)C[C@H](C)/C=C/C=C/C=C/1C [Sirolimus] (100 nM) | 93.7% | 106% | 94.4% | 110% | 98.5% | 101% | 106% | 49.5% | 108% | 106% | 107% | 116% | 94.5% | 106% |  |  |  |  |  |  |  |  |  |  |  |  |  |  |  |  |  | 
CCCCCOC(=O)Nc1nc(=O)n([C@@H]2O[C@H](C)[C@@H](O)[C@H]2O)cc1F [Capecitabine] (10000 nM) | 117% | 90.2% | 99.5% | 87.2% | 97.5% | 122% | 102% | 87.1% | 94.7% | 56.1% | 74.1% | 110% | 103% | 104% |  |  |  |  |  |  |  |  |  |  |  |  |  |  |  |  |  | 
C[C@@H]1C[C@H]2[C@@H]3CCC4=CC(=O)C=C[C@]4(C)[C@@]3(F)[C@@H](O)C[C@]2(C)[C@@]1(O)C(=O)CO [Dexamethasone] (1000 nM) | 111% | 98.4% |  | 98.8% | 96% | 107% | 87% | 106% | 56.1% | 77.8% | 78.1% | 141% | 81.5% | 94.8% | 139% | 102% | 68.7% | 92.5% | 124% | 112% | 97.6% | 97.8% | 98.1% | 83.6% | 108% | 80.6% | 159% | 104% | 84.6% | 102% | 93.5% | 83.5%
